Assay results taken from patent US9611232B2, “Oxazolidinone and imidazolidinone compounds” (Hoffmann-La Roche Inc., priority 2012, dated 2017).

Experiments:
[1] = system: human melanoma; conditions: severe combined immunodeficiency mice; cited from earlier work
[2] = system: human endometrial cancer cells; conditions: nude mice; cited from earlier work
[3] = target: h KCa3.1 (Homo sapiens (Human), UniProt O15554); test: Electrophysiology patch clamp (PatchXpress); assay type: cell-based; conditions: CHO cells over-expressing h KCa3.1, read-out: IC50 Ephys
Description: Electrophysiology Patch Clamp
Compounds were tested using a PatchXpress® (Model 7000A, Molecular Devices, Union City Calif.) on CHO cells over-expressing h KCa3.1 at ChanTest Corporation, 14656 Neo Parkway, Cleveland, Ohio.

[4] = target: KCa3.1 (Homo sapiens (Human), UniProt O15554); test: Thallium influx assay (FLIPR, FluxOR); assay type: cell-based; conditions: CHOK1 cells over-expressing KCa3.1; thallium (3.3 mM)/ionomycin (1 μM) activation
Description: The thallium influx assay was performed with CHOK1 cells over-expressing KCa3.1 obtained from Evotec and maintained in MEM Alpha medium supplemented with 10% fetal bovine serum, 100 U/ml penicillin/[…] streptomycin and 250 μg/ml G418.
CHOK1 wild type cells were passaged using F12/Ham's medium supplemented with 10% fetal bovine serum, 2 mM glutamine, 100 U/ml penicillin/[…] streptomycin. All cells were cultured in T175 flasks.
Before the day of the assay, cells were harvested from culture flasks using standard trypsin digestion. Cells were counted and densities adjusted and dispensed into 384-well poly-D-lysine coated plates at 7500 […], assay plates were incubated overnight in CO2 incubator at 37° C.
The following day, growth media was removed followed by the addition of 25 ul/well of FluxOR™ (Invitrogen) loading dye in a gluconate based assay buffer (135 mM NaGluconate,
2.5 mM Kgluconate, 2 mM CaNO3, 1 mM MgNO3, 10 mM HEPES (acid), 5 mM glucose pH adjusted to 7.4). Assay plates were incubated for 1 hour at 37° C. The loading dye was then replaced with gluconate assay buffer containing probenecid.
Compounds diluted in gluconate buffer were transferred into the assay plates (25 μl/well) followed by incubation for 20 minutes at room temperature. The assay plates were then transferred to a Fluorometric Imaging Plate Reader (FLIPR), a baseline was read for twenty second capture, followed by the addition of 25 μl/well of channel activation solution in gluconate buffer—for KCa3.1 cells thallium (3.3 mM)/ionomycin(1 μM) was used and for the wild type, ionomycin only, then fluorescence was monitored for another 90 seconds.

[5] = system: allergen challenge-induced airway resistance and hyper-reactivity; conditions: sheep model of asthma; cited from earlier work
[6] = system: MDCK 3-D cyst; conditions: MDCK 3-D cyst model of ADPKD; cited from earlier work
[7] = system: T-cell and macrophage infiltration; conditions: in combination with a Kv1.3 blocker; early stages of chronic kidney transplant rejection; cited from earlier work
[8] = system: renal fibrosis; conditions: unilateral ureteral obstruction model; cited from earlier work
[9] = system: neointimal smooth muscle hyperplasia; conditions: rats after carotid balloon angioplasty; cited from earlier work
[10] = system: trinitrobenzene sulfonic acid-induced colitis; conditions: mice; cited from earlier work

IC50 [3] | IC50 [4] | Compound | also measured
– | – | Clc1ccccc1C(c1ccccc1)(c1ccccc1)n1ccnc1 [Clotrimazole] | number of metastases [1]: reduce the number of metastases; growth of tumours [2]: slowed the growth of tumours
15 nM | 340 nM | NC(=O)CN1C(=O)OC(c2ccccc2F)(c2ccccc2F)[C@@H]1c1ccccc1F [Example 13, 2-[(S)-4,5,5-Tris-(2-fluoro-phenyl)-2-oxo-oxazolidin-3-yl]-acetamide] | –
42 nM | 700 nM | NC(=O)CN1C(=O)OC(c2cccc(F)c2)(c2cccc(F)c2)[C@@H]1c1ccccc1F [Example 15, 2-[(S)-5,5-Bis-(3-fluoro-phenyl)-4-(2-fluoro-phenyl)-2-oxo-oxazolidin-3-yl]-acetamide] | –
15 nM | 880 nM | NC(=O)CN1C(=O)OC(c2ccccc2)(c2ccccc2)[C@@H]1c1ccccc1F [Example 17, 2-[(S)-4-(2-Fluoro-phenyl)-2-oxo-5,5-diphenyl-oxazolidin-3-yl]-acetamide] | –
63 nM | 740 nM | NC(=O)CN1C(=O)OC(c2ccc(F)cc2)(c2ccc(F)cc2)[C@@H]1c1ccccc1Cl [Example 19, 2-[(S)-4-(2-Chloro-phenyl)-5,5-bis-(4-fluoro-phenyl)-2-oxo-oxazolidin-3-yl]-acetamide] | –
– | – | NC(=O)C(c1ccccc1)(c1ccc(F)cc1)c1ccc(F)cc1 [Senicapoc] | allergen challenge-induced airway resistance and hyper-reactivity [5]: reduce allergen challenge-induced airway resistance and hyper-reactivity
– | – | Clc1ccccc1C(c1ccccc1)(c1ccccc1)n1cccn1 [TRAM-34] | cyst formation [6]: inhibits cyst formation; T-cell and macrophage infiltration [7]: reduced T-cell and macrophage infiltration; renal fibrosis [8]: significantly reduced renal fibrosis; neointimal smooth muscle hyperplasia [9]: significantly reduced neointimal smooth muscle hyperplasia; severity of the symptoms [10]: significantly reduced the severity of the symptoms
